Measured values as given in BigSolDB 2.1.

CC(CCc1ccccc1)NCC(O)c1ccc(O)c(C(N)=O)c1.Cl (stereo unspecified)
solubility (mole fraction)
Conditions	in ethanol	in ethyl acetate	in isobutanol	in isopropanol	in methanol	in n-butanol	in n-propanol	in sec-butanol	in water
288.15 K	0.00124	0.000116	0.000136	0.00011	0.00883	0.000385	0.000478	0.000167	0.000711
293.15 K	0.00145	0.000163	0.000184	0.000164	0.0101	0.000467	0.00058	0.000211	0.000898
298.15 K	0.0017	0.000237	0.000257	0.000253	0.0114	0.000565	0.00071	0.000278	0.00118
303.15 K	0.00198	0.000302	0.000326	0.000355	0.013	0.000675	0.000841	0.000336	0.00145
308.15 K	0.00222	0.000406	0.000429	0.000492	0.0144	0.000808	0.001	0.000411	0.00172
313.15 K	0.00253	0.000531	0.00056	0.000675	0.0162	0.000967	0.00121	0.000515	0.00212
318.15 K	0.00288	0.000689	0.000729	0.000985	0.0182	0.00116	0.00144	0.000643	0.00266
323.15 K	0.0035	0.000823	0.000981	0.0014	0.0204	0.00136	0.00173	0.000804	0.00337
328.15 K	0.00395	0.00109	0.00126	0.00194	0.0228	0.00163	0.00194	0.000983	0.00409
